Measurements reported in patent publication US9023789B2, “Amylin analogs and pharmaceutical compositions thereof” (Novo Nordisk A/S, priority 2012, dated 2015).
In brackets after ≈: the same amount, converted by molar mass. Where two headings read alike, the source gives them in different places. Numbered stars: 1 amine (or outer) side, 2 acyl side, 3 side chain; on linkers, the order of the positions; unused ones are H or OH. Bridge positions count the residues as written; N and C are the ends. Side chains are listed from the residue outwards. Peptide text beside a SMILES is read from it. * marks the point of attachment. C20 diacid = O=C(O)CCCCCCCCCCCCCCCCCCC(=O)*; γGlu = O=C(O)[C@H](CCC(=O)[*:2])N[*:1]; AEEA = NCCOCCOCC(=O)O

Columns and labels:
[1] = ASSAY (IV) determination of solubility; type: physicochemical
Outline: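 Dissolve polypeptide in water ([…] stock); combine 1:1 with each 100 mM buffer (glycylglycine pH 3.0/4.0/5.0; bistrispropane pH 6.0/6.5/7.0/7.5/8.0); hold 18 hours at room temperature; centrifuge; quantify polypeptide by UPLC.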

[2] = biological target: T1, human amylin 3(a) receptor (human calcitonin receptor + RAMP-3) in BHK570 cells (Homo sapiens, UniProt O60896+P30988); experiment: ASSAY (II)a functional assay, human amylin receptor (CRE luciferase); type: cell-based
T1 construct: expressed in transfected cells
Outline: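 Cells were seeded and cultured overnight, then incubated with standard or sample for 3 h at 37° C in serum-containing medium at pH 7.4. The medium was then swapped for PBS, LucLite was added for 30 min at room temperature, and luminescence was recorded. Cells were BHK with CRE-luc and calcitonin receptor, ± RAMP-3.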

[3] = biological target: T2, human amylin receptor (membranes from Amylin 3(a)/CRE-luc cells) (Homo sapiens, UniProt O60896+P30988); experiment: ASSAY (V) binding to the human amylin receptor (SPA, 125I-rat amylin);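 further: competition binding of cell membranes (35 ng/µL) mixed with SPA beads in 384-well plates at 40 µL total volume, read by scintillation counting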
T2 construct: expressed in transfected cells
T2 sequence (P30988 25-474): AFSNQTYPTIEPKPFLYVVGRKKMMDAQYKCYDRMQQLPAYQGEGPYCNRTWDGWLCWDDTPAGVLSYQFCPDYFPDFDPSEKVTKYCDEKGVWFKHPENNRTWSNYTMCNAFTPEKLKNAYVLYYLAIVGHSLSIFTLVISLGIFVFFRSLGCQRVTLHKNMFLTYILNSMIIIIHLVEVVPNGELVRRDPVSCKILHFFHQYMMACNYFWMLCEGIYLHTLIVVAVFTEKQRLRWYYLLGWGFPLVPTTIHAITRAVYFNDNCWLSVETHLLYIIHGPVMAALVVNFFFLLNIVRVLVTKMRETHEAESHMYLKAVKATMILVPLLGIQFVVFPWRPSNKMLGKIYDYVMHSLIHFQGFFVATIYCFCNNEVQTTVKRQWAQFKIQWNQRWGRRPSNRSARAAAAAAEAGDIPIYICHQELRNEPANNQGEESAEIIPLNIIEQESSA
T2 sequence (O60896 24-148 partner): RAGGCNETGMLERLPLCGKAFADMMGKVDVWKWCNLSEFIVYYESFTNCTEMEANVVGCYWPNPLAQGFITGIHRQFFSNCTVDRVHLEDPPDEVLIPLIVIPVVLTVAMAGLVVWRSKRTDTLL

[4] = biological target: T3, rat amylin receptor (rat calcitonin receptor + rat RAMP 3) (Rattus norvegicus, UniProt P32214+Q9JJ73); experiment: ASSAY (VI) binding to the rat amylin receptor; conditions: for IC50: binding to rat amylin receptor, read-out: rAmylin-R bind IC50
T3 construct: expressed in transfected cells; host or cells: BHK tk'ts 13 (transient, FuGENE 6), membranes
T3 sequence (P32214 25-479 isoform P32214-2 limits assumed): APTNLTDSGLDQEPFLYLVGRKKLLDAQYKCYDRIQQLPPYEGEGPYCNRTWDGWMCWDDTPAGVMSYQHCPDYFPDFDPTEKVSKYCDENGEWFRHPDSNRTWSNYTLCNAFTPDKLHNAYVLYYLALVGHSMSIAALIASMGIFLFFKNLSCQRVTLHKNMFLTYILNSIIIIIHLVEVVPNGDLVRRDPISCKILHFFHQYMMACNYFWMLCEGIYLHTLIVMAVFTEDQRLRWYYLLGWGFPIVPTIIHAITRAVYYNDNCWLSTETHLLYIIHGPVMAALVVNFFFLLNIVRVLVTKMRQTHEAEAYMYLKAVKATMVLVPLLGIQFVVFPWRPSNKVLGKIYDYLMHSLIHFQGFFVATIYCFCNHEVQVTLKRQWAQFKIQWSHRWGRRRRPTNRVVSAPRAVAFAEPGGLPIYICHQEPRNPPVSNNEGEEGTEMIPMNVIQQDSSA
T3 sequence (Q9JJ73 23-147 partner): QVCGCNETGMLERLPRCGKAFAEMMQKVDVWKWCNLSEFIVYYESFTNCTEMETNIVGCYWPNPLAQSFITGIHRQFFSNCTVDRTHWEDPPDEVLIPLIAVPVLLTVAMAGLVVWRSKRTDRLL
Outline: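 Binding to the rat amylin receptor was determined with membrane preparations. The receptor was expressed by transiently transfecting BHK tk′ts 13 cells with rat calcitonin receptor, using FuGENE® 6 (Roche) according to the manufacturer's recommendations. Roughly 48 hours later the cells were harvested and their membranes isolated.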

[5] = biological target: T4, rat calcitonin receptor (Rattus norvegicus, UniProt P32214); experiment: ASSAY (VIII) binding to the rat calcitonin receptor; conditions: Table 7, read-out: rCTR bind IC50
T4 construct: expressed in transfected cells; host or cells: BHK tk'ts 13 (transient, FuGENE 6), membranes
T4 sequence (P32214 25-479 isoform P32214-2 limits assumed): T3 sequence (P32214 25-479 isoform P32214-2 limits assumed)
Outline: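 Rat calcitonin receptor is expressed transiently in BHK tk′ts 13 cells cultured in DMEM with 10% FBS. Roughly two days (approximately 48 hours) post-transfection, cells are harvested for membrane preparation.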

[6] = bistrispropane buffer, pH 6.5, read-out: Solubility pH 6.5 Concentration
[7] = bistrispropane buffer, pH 7.5, read-out: Solubility pH 7.5 Concentration
[8] = bistrispropane buffer, pH 6.0, read-out: Solubility pH 6.0 Concentration
[9] = bistrispropane buffer, pH 7.0, read-out: Solubility pH 7.0 Concentration
[10] = bistrispropane buffer, pH 8.0, read-out: Solubility pH 8.0 Concentration
[11] = glycylglycine buffer, pH 3.0, read-out: Solubility pH 3.0 Concentration
[12] = glycylglycine buffer, pH 4.0, read-out: Solubility pH 4.0 Concentration
[13] = glycylglycine buffer, pH 5.0, read-out: Solubility pH 5.0 Concentration
[14] = hCTR funct. EC50 divided by hAmylin-R funct. EC50
[15] = hCTR funct. EC50 over hAmylin-R funct. EC50
[16] = human functional selectivity: hCTR funct. EC50 / hAmylin-R funct. EC50
[17] = Table 5, selectivity, hCTR bind IC50 / hAmylin-R bind IC50
[18] = Table 5a, selectivity, hCTR bind IC50 / hAmylin-R bind IC50
[19] = Table 5b, selectivity, hCTR bind IC50 / hAmylin-R bind IC50
[20] = Table 5c, selectivity, hCTR bind IC50 / hAmylin-R bind IC50
[21] = Table 7, human binding selectivity, included for comparison
[22] = Table 7a (preferred compounds), human binding selectivity, included for comparison
[23] = ratio of human calcitonin receptor binding IC50 to human amylin receptor binding IC50
[24] = Table 7, rat binding selectivity, rCTR IC50 / rAmylin-R IC50
[25] = Table 7a (preferred compounds), rat binding selectivity, rCTR IC50 / rAmylin-R IC50
[26] = ratio of rCTR bind IC50 to rAmylin-R bind IC50

Row | solubility at 18 h [1, 6] [µM] | solubility at 18 h [1, 7] [µM] | solubility at 18 h [1, 8] [µM] | solubility at 18 h [1, 9] [µM] | solubility at 18 h [1, 10] [µM] | solubility at 18 h [1, 11] [µM] | solubility at 18 h [1, 12] [µM] | solubility at 18 h [1, 13] [µM] | Ratio hCT/hAmylin funct. [2, 14] | Ratio hCT/hAmylin funct. [2, 15] | Ratio hCT/hAmylin funct. [2, 16] | Ratio hCT/hAmylin binding [3, 17] | Ratio hCT/hAmylin binding [3, 18] | Ratio hCT/hAmylin binding [3, 19] | Ratio hCT/hAmylin binding [3, 20] | Ratio hCT/hAmylin binding [3, 21] | Ratio hCT/hAmylin binding [3, 22] | Ratio hCT/hAmylin binding [3, 23] | IC50 ([4]; Table 7) [nM] | Ratio rCT/rAmylin binding [4, 24] | SMILES | further results
1 | ≥ 200 | 162 (≈ 738 µg/mL) | ≥ 200 | 172 (≈ 786 µg/mL) | 149 (≈ 681 µg/mL) | ≥ 200 | ≥ 200 | ≥ 200 | 27.8 | 27.8 | 27.8 | 28.0 | 28.0 | 28.0 | 28.0 | 28.0 | 28.0 | 28.0 | 2.37 | 48.8 | CC[C@H](C)[C@H](NC(=O)[C@H](C)NC(=O)CNC(=O)[C@H](Cc1ccccc1)NC(=O)[C@H](CC(N)=O)NC(=O)[C@@H]1CCCN1C(=O)[C@H](CO)NC(=O)[C@H](CO)NC(=O)[C@H](Cc1c[nH]cn1)NC(=O)[C@H](CCCNC(=N)N)NC(=O)[C@H](CC(C)C)NC(=O)[C@H](Cc1ccccc1)NC(=O)[C@H](CCC(=O)O)NC(=O)[C@H](C)NC(=O)[C@H](CC(C)C)NC(=O)[C@H](CCCNC(=N)N)NC(=O)[C@H](CCC(N)=O)NC(=O)[C@@H](NC(=O)[C@H](C)NC(=O)[C@@H]1CSSC[C@H](NC(=O)[C@@H](N)CCCCNC(=O)CC[C@H](NC(=O)CC[C@H](NC(=O)CCCCCCCCCCCCCCCCCCC(=O)O)C(=O)O)C(=O)O)C(=O)N[C@@H](CC(N)=O)C(=O)N[C@@H]([C@@H](C)O)C(=O)N[C@@H](C)C(=O)N[C@@H]([C@@H](C)O)C(=O)N1)[C@@H](C)O)C(=O)N1CCC[C@H]1C(=O)N[C@@H](CO)C(=O)N[C@@H](CO)C(=O)N[C@H](C(=O)N[C@@H](CC(N)=O)C(=O)N[C@H](C(=O)NCC(=O)N[C@@H](CO)C(=O)N[C@@H](CCCNC(=N)N)C(=O)N[C@H](C(=O)N[C@@H](Cc1ccc(O)cc1)C(N)=O)[C@@H](C)O)C(C)C)[C@@H](C)O [Example 89] (H-K([γGlu-γGlu-C20 diacid])CNTATCATQRLAEFLRHSSPNFGAIPSSTNVGSRTY-NH2; disulfide 2-7 (inferred); N-terminus assumed) | EC50 ([2]; human amylin receptor functional potency, assay (II), read-out: hAmylin-R funct. EC50): 0.404 nM; IC50 ([3]; Table 4, read-out: hAmylin-R bind IC50): 1.16 nM; Ratio rCT/rAmylin binding [4, 25]: 48.8; Ratio rCT/rAmylin binding [4, 26]: 48.8; IC50 [5]: 115 nM
2 | ≥ 200 | ≥ 200 | ≥ 200 | ≥ 200 | 153 (≈ 693 µg/mL) | ≥ 200 | ≥ 200 | ≥ 200 | 10.9 | 10.9 | 10.9 | 66.7 | 66.7 | 66.7 | 66.7 | 66.7 | 66.7 | 66.7 | 0.842 | 39.7 | CC[C@H](C)[C@H](NC(=O)[C@H](C)NC(=O)CNC(=O)[C@H](Cc1ccccc1)NC(=O)[C@H](CC(N)=O)NC(=O)[C@@H]1CCCN1C(=O)[C@H](CO)NC(=O)[C@H](CO)NC(=O)[C@H](Cc1c[nH]cn1)NC(=O)[C@H](CCCNC(=N)N)NC(=O)[C@H](CC(C)C)NC(=O)[C@H](Cc1ccccc1)NC(=O)[C@H](Cc1c[nH]cn1)NC(=O)[C@H](C)NC(=O)[C@H](CC(C)C)NC(=O)[C@H](CCCNC(=N)N)NC(=O)[C@H](CCC(N)=O)NC(=O)[C@@H](NC(=O)[C@H](C)NC(=O)[C@@H]1CSSC[C@H](NC(=O)[C@@H](N)CCCCNC(=O)COCCOCCNC(=O)CC[C@H](NC(=O)CCCCCCCCCCCCCCCCCCC(=O)O)C(=O)O)C(=O)N[C@@H](CC(N)=O)C(=O)N[C@@H]([C@@H](C)O)C(=O)N[C@@H](C)C(=O)N[C@@H]([C@@H](C)O)C(=O)N1)[C@@H](C)O)C(=O)N1CCC[C@H]1C(=O)N[C@@H](CO)C(=O)N[C@@H](CO)C(=O)N[C@H](C(=O)N1CCC[C@H]1C(=O)N[C@H](C(=O)NCC(=O)N[C@@H](CO)C(=O)N[C@@H](CC(N)=O)C(=O)N[C@H](C(=O)N[C@@H](Cc1ccc(O)cc1)C(N)=O)[C@@H](C)O)C(C)C)[C@@H](C)O [Example 61] (H-K([AEEA-γGlu-C20 diacid])CNTATCATQRLAHFLRHSSPNFGAIPSSTPVGSNTY-NH2; disulfide 2-7 (inferred)) | Ratio rCT/rAmylin binding [4, 25]: 39.7; Ratio rCT/rAmylin binding [4, 26]: 39.7; IC50 [5]: 33.4 nM
